# Experimental data from patent US12577238B2, “Compositions and methods for modulating inflammatory and degenerative disorder” (University of Southern California, priority 2018, dated 2026).
# “Also recorded” adds a separate entry of the source.
# Assays:
# Assay type in all cases: cell-based
# [1] = biological target: T1, OSMR and gp130 (Homo sapiens, UniProt P40189); assay: Receptor competition, gp130-Flag pull-down, OSMR; conditions: in the presence of OSM; IP-FLAG, WB-OSMR
# T1 construct: FLAG; expressed in transfected cells; host or cells: adult human chondrocytes
# T1 sequence (P40189 23-918): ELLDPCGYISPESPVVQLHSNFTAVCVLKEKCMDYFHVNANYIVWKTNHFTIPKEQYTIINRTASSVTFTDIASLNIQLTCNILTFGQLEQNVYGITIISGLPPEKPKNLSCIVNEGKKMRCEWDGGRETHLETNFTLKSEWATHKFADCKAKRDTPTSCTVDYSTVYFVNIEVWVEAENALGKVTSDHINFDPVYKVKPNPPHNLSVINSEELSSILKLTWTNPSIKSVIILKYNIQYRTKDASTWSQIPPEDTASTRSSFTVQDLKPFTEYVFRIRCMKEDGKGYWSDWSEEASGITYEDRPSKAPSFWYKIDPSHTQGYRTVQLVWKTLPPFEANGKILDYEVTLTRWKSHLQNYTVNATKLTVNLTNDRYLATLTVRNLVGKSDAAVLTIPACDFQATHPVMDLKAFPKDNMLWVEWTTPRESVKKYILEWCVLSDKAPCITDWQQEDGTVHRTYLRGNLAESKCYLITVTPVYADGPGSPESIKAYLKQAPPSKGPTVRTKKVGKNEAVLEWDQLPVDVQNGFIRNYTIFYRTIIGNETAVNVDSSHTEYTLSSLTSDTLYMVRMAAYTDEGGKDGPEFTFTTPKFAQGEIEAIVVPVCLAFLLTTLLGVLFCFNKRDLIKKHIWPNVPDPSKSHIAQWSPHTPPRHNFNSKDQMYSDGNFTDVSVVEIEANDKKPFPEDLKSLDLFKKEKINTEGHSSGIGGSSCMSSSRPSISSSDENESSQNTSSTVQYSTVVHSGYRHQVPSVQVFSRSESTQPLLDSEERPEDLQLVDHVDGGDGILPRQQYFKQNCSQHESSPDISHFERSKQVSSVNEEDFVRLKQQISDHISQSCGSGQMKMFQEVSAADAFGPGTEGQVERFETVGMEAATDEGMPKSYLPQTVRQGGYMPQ
# Procedure: (§1) Adult human chondrocytes transfected with gp130-Flag were incubated with various concentrations of RCGD 423 in the presence of IL-6 or OSM; levels of immoprecipitated IL-6R or OSMR were used to calculate the dissociation constant (Kd).
# Adult human chondrocytes; IP-FLAG AB (transfected with gp130 FLAG plasmid), WB-OSMR.
# (§2) This property would be of great interest due to the pro-inflammatory and pro-catabolic effects of these cytokines in the joint space. […] To assess whether RCGD 423 could directly compete for gp130 occupancy, human adult articular chondrocytes were transfected with tagged gp130 and then pulled down associated proteins±RCGD 423 and/or IL-6.
# [2] = test system: adult pig articular chondrocytes; assay: Western blot of signaling proteins (pSTAT3, MYC, MAPK, AKT, NF-κB) in pig articular chondrocytes
# Procedure: (A) Class 1 molecules (marked by red arrows) activate STAT3 and MYC signaling pathways wile Class 2 molecules (blue arrows) have no stimulatory effects on STAT3 and MYC signaling in chondrocytes as determined by western blot analysis. (B) Structures of the most prominent Class 1 and Class 2 molecules. […] All drugs were tested at 10 μM and assessed using Western Blot.
# All drugs tested at 10 μM and assessed using Western Blot.
# To begin to address the mechanism of action of RCGD 423, adult pig chondrocytes were incubated with the drug, IL-6 family cytokines or the pro-catabolic cytokines TNF-α and IL-1β and measured levels of various proteins downstream of these cytokines that are known to drive catabolic responses (FIG. 3).
# Firstly, RCGD 423 was a hit from a library; this made the depth of the discovery surrounding the technology less comprehensive. Additionally, the physical properties of RCGD 423 (solubility, potency, functional groups) could be improved. Significant gains in these areas could potentially result in a first-in-class injectable for the treatment of post-traumatic OA. Moreover, the potential risks associated with promoting MYC stabilization and proliferation in gp130^+ cells as well as large increases in active STAT3 protein was of concern. […] These compounds were then screened in adult pig articular chondrocytes and cartilage explants, seeking compounds that could inhibit the catabolic effects of OSM but not drive increases in MYC and pSTAT3 protein levels. […] Together, these preliminary data identify CX-011 (B8) as a highly anti-inflammatory, anti-catabolic alternative to RCGD 423, with increased “drug-like” properties and reduced potential molecular liabilities.
# [3] = test system: adult human synoviocytes; assay: ERK and NF-κB downstream of OSM and IL-6 in synoviocytes
# Procedure: (§3) Accordingly, the ability of RCGD 423 to suppress signaling downstream of IL-6 and OSM in synoviocytes and peripheral blood mononuclear cells was assessed (FIG. 14).
# [4] = test system: gp130; assay: gp130 null Ba/F3 cells transfected with full-length gp130 or ΔD2 mutant; conditions: WT gp130 vs ΔD2 mutant
# Procedure: (§4) Based on this, it was hypothesized that RCGD 423 acts through gp130 by promoting stable homodimers in the absence of ligand. To confirm that RCGD 423 acts through gp130, the gp130 null cell line Ba/F3 cells was used. Ba/F3 cells were transfected with either full-length gp130 or a mutant gp130 lacking domain 2 (ΔD2), which contains the predicted binding site for RCGD 423 (FIG. 7). […] To verify the specificity of RCGD 423 in vivo, the compound was injected into rat knees in the presence of the small molecule gp130 inhibitor SC144 or a blocking antibody specific for domain 2 of gp130. […] The ability of RCGD 423 to act via inducing formation of gp130 homodimers was then examined by expressing tagged versions of gp130 in 293T cells. In this system, only homodimeric complexes can contain both tagged versions of gp130 (FIG. 9).
# [5] = biological target: T2, gp130 homodimers (Homo sapiens, UniProt P40189); assay: Tagged gp130 homodimer detection in 293T cells; conditions: tagged gp130 in 293T cells
# T2 construct: Myc; expressed in transfected cells; host or cells: 293T
# T2 sequence (P40189 23-918) 1: T1 sequence (P40189 23-918)
# T2 sequence (P40189 23-918) 2: T1 sequence (P40189 23-918)
# Procedure: as §4
# [6] = biological target: T3, gp130-IL-6R complexes (Homo sapiens, UniProt P40189); assay: Receptor competition, gp130-Flag pull-down, IL-6R; conditions: in the presence of IL-6
# T3 construct: Flag; expressed in transfected cells; host or cells: adult human articular chondrocytes
# T3 sequence (P40189 23-918): T1 sequence (P40189 23-918)
# Procedure: as §1, §2
# [7] = test system: adult human PBMCs; assay: ERK and NF-κB downstream of OSM and IL-6 in PBMCs
# Procedure: as §3
smiles,measurement,setting,value
Brc1ccc(Nc2nc(-c3ccccc3)cs2)cc1 [RCGD 423],competition with OSMR for gp130 occupancy / OSMR-gp130 interaction,[1],directly competes with OSMR and IL-6R for gp130 occupancy
same,levels of active STAT3 (pSTAT3) and MYC proteins,"[2]; Western blot, analogs at 10 μM",increased levels of active STAT3 and MYC proteins; also recorded: shared increase in active STAT3 (pSTAT3) and MYC proteins
same,"activation of the MAPK, AKT and NF-κB pathways",[2]; adult pig articular chondrocytes,did not evidence the same result; also recorded: does not
same,increases in ERK and NF-κB levels downstream of OSM and IL-6,[3],inhibits increases in ERK and NF-κB levels
same,gp130 signaling in gp130−/− Ba/F3 cells,[4],full-length gp130 is required for the activity of RCGD 423; also recorded: only increase gp130 signaling in the presence of RCGD 423 and WT gp130
same,detection of gp130 homodimers (gp130-Myc),[5],only in the presence of RCGD 423 could gp130 homodimers be detected; also recorded: gp130-Myc was only detectable in the presence of RCGD 423
same,gp130-IL-6R complexes / competition with IL-6R for gp130 occupancy,[6],gp130-IL-6R complexes were significantly reduced; also recorded: directly competes with OSMR and IL-6R for gp130 occupancy
same,increases in ERK and NF-κB levels downstream of OSM and IL-6,[7],inhibits increases in ERK and NF-κB levels
